Source: patent publication US8716303B2, “N-(hetero)aryl-pyrrolidine derivatives of pyrazol-4-yl-pyrrolo[2,3-d]pyrimidines and pyrrol-3-yl-pyrrolo[2,3-d]pyrimidines as janus kinase inhibitors” (Incyte Corporation, priority 2009, dated 2014)
Counter-ions that a name gives are not always drawn.

Columns and labels:
[1] = biological target: T1, human JAK1 (a.a. 837-1142) (Homo sapiens, UniProt P23458); assay: In vitro JAK kinase assay (HTRF, phosphorylation of a biotinylated peptide), JAK1; type: biochemical
T1 construct: human JAK1 (a.a. 837-1142); His tag (N); made in house; host or cells: insect cells (baculovirus)
T1 sequence (P23458 849-1154): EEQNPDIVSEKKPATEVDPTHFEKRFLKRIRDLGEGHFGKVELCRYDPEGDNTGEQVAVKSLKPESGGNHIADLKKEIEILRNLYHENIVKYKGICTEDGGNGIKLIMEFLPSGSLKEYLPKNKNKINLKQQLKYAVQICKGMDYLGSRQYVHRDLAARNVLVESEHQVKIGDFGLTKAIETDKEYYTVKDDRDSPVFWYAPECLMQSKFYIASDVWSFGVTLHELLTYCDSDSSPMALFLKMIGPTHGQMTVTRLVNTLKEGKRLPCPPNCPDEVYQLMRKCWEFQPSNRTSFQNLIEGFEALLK
Method in brief: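 IC50s come from HTRF detection (Eu-Py20, SA-APC, 40 min binding) after 1 h RT reactions with 500 nM biotinylated peptide in Tris pH 7.8 buffer. ATP either 1 mM or Km-level, 90 μM for JAK1 and 30 μM for JAK2; enzymes are baculovirus-expressed His-tagged catalytic domains (JAK1 837-1142, JAK2 828-1132).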

[2] = biological target: T2, Jak2 (a.a. 828-1132) (Homo sapiens, UniProt O60674); assay: In vitro JAK kinase assay (HTRF, phosphorylation of a biotinylated peptide), JAK2, reported as JAK2/JAK1 ratio; type: biochemical
T2 construct: Jak2 (a.a. 828-1132); His tag (N); made in house; host or cells: insect cells (baculovirus)
T2 sequence (O60674 828-1132): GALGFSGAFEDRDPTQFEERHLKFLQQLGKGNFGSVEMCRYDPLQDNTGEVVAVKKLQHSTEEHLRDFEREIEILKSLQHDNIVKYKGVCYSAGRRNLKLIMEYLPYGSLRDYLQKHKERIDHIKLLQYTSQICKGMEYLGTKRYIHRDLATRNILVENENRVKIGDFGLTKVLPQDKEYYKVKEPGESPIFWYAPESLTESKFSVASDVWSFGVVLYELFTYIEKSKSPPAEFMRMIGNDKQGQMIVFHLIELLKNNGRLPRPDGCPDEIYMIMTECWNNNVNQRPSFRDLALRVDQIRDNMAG

[3] = Assay Conditions Km (ATP 90 μM for Jak1)
[4] = Assay Conditions Km (ATP 90 μM for Jak1, 30 μM for Jak2)

| IC50 ([1]; Assay Conditions 1 mM ATP) | JAK2/JAK1 IC50 ratio ([2]; Assay Conditions 1 mM ATP) | IC50 [1, 3] | JAK2/JAK1 IC50 ratio [2, 4] | Compound |
| --- | --- | --- | --- | --- |
| < 50 nM | >11.8 | – | – | N#CCC(C1CCN(c2ccnc(C(=O)Nc3ccccc3)c2)C1)n1cc(-c2ncnc3[nH]ccc23)cn1 (single isomer, unassigned) [Example 154, 4-(3-{2-cyano-1-[4-(7H-pyrrolo[2,3-d]pyrimidin-4-yl)-1H-pyrazol-1-yl]ethyl}pyrrolidin-1-yl)-N-phenylpyridine-2-carboxamide] |
| < 50 nM | 2 | – | – | N#CCC(C1CCN(c2ccccc2C#N)C1)n1cc(-c2ncnc3[nH]ccc23)cn1 (stereo not shown) [Example 52, 2-(3-{2-cyano-1-[4-(7H-pyrrolo[2,3-d]pyrimidin-4-yl)-1H-pyrazol-1-yl]ethyl}pyrrolidin-1-yl)benzonitrile trifluoroacetate salt] |
| 50 to 100 nM | 3.3 | – | – | N#CCC(C1CCN(c2nccc(C#N)c2Cl)C1)n1cc(-c2ncnc3[nH]ccc23)cn1 (racemic) [Example 38, ±3-chloro-2-(3-{2-cyano-1-[4-(7H-pyrrolo[2,3-d]pyrimidin-4-yl)-1H-pyrazol-1-yl]ethyl}pyrrolidin-1-yl)isonicotinonitrile trifluoroacetate] |
| < 50 nM | 17.4 | – | – | N#CC[C@@H]([C@H]1CCN(c2ncc(CO)nc2C#N)C1)n1cc(-c2ncnc3[nH]ccc23)cn1 [Example 140, 3-((3S)-3-{(1S)-2-cyano-1-[4-(7H-pyrrolo[2,3-d]pyrimidin-4-yl)-1H-pyrazol-1-yl]ethyl}pyrrolidin-1-yl)-6-(hydroxymethyl)pyrazine-2-carbonitrile trifluoroacetate] |
| < 50 nM | 8.2 | – | – | N#CC[C@@H]([C@H]1CCN(c2cccnc2C#N)C1)n1cc(-c2ncnc3[nH]ccc23)cn1 [Example 68, 3-((3S)-3-{(1S)-2-cyano-1-[4-(7H-pyrrolo[2,3-d]pyrimidin-4-yl)-1H-pyrazol-1-yl]ethyl}pyrrolidin-1-yl) pyridine-2-carbonitrile trifluoroacetate salt] |
| < 50 nM | 11.0 | – | – | CSc1ccnc(N2CC[C@H]([C@H](CC#N)n3cc(-c4ncnc5[nH]ccc45)cn3)C2)c1C#N [Example 127, 2-((3S)-3-{(1S)-2-cyano-1-[4-(7H-pyrrolo[2,3-d]pyrimidin-4-yl)-1H-pyrazol-1-yl]ethyl}pyrrolidin-1-yl)-4-(methylthio)nicotinonitrile trifluoroacetate] |
| < 50 nM | 4.8 | – | – | N#CC[C@@H]([C@H]1CCN(c2ncc(C#N)cc2F)C1)n1cc(-c2ncnc3[nH]ccc23)cn1 [Example 107, 6-((S)-3-((S)-1-(4-(7H-pyrrolo[2,3-d]pyrimidin-4-yl)-1H-pyrazol-1-yl)-2-cyanoethyl)pyrrolidin-1-yl)-5-fluoronicotinonitrile trifluoroacetate salt] |
| – | – | 50 to 100 nM | 0.2 | N#CCC(C1CCN(c2nc3cccnc3o2)C1)n1ccc(-c2ncnc3[nH]ccc23)c1 (single isomer, unassigned) [32, Step 2b (racemate)] |
| – | – | < 50 nM | 3.7 | N#CCC(C1CCN(c2nc3cccnc3o2)C1)n1ccc(-c2ncnc3[nH]ccc23)c1 (single isomer, unassigned) [32, Step 2a, enantiomer 1] |
| < 50 nM | 31.8 | – | – | N#Cc1c(N2CC[C@H](C(CF)n3cc(-c4ncnc5[nH]ccc45)cn3)C2)ncc2c1S(=O)(=O)CC2 (single isomer, unassigned) [Example 178] |
| < 50 nM | 3.1 | – | – | N#CC[C@@H]([C@H]1CCN(c2ccc(F)c(F)n2)C1)n1cc(-c2ncnc3[nH]ccc23)cn1.O=C(O)C(F)(F)F [Example 89, (3S)-3-[(3S)-1-(5,6-difluoropyridin-2-yl)pyrrolidin-3-yl]-3-[4-(7H-pyrrolo[2,3-d]pyrimidin-4-yl)-1H-pyrazol-1-yl]propanenitrile trifluoroacetate] |
| – | – | < 50 nM | 2.4 | N#CCC(C1CCN(c2nc3ncccc3o2)C1)n1cc(-c2ncnc3[nH]ccc23)cn1 (single isomer, unassigned) [Example 12, 3-(1-[1,3]oxazolo[4,5-b]pyridin-2-ylpyrrolidin-3-yl)-3-[4-(7H-pyrrolo[2,3-d]pyrimidin-4-yl)-1H-pyrazol-1-yl]propanenitrile] |
| 50 to 100 nM | 6 | – | – | Cn1cc(Cl)nc(N2CCC(C(CC#N)n3cc(-c4ncnc5[nH]ccc45)cn3)C2)c1=O (racemic) [Example 36, ±3-[1-(6-chloro-4-methyl-3-oxo-3,4-dihydropyrazin-2-yl)pyrrolidin-3-yl]-3-[4-(7H-pyrrolo[2,3-d]pyrimidin-4-yl)-1H-pyrazol-1-yl]propanenitrile trifluoroacetate] |
| – | – | < 50 nM | 5.7 | N#CCC(C1CCN(c2nc3cccnc3o2)C1)n1ccc(-c2ncnc3[nH]ccc23)c1 (single isomer, unassigned) [32, Step 2a, enantiomer 2] |
| < 50 nM | 5.6 | – | – | N#CC[C@@H]([C@H]1CCN(c2nc(F)c(F)cc2F)C1)n1cc(-c2ncnc3[nH]ccc23)cn1 [Example 67, (3S)-3-[4-(7H-pyrrolo[2,3-d]pyrimidin-4-yl)-1H-pyrazol-1-yl]-3-[(3S)-1-(3,5,6-trifluoropyridin-2-yl)pyrrolidin-3-yl]propanenitrile trifluoroacetate salt] |
| 100 to 500 nM | 8 | – | – | Cn1ccc2cnc(N3CCC(C(CC#N)n4cc(-c5ncnc6[nH]ccc56)cn4)C3)nc21 (single isomer, unassigned) [Example 17, 3-[1-(7-methyl-7H-pyrrolo[2,3-d]pyrimidin-2-yl)pyrrolidin-3-yl]-3-[4-(7H-pyrrolo[2,3-d]pyrimidin-4-yl)-1H-pyrazol-1-yl]propanenitrile] |
| < 50 nM | 17 | – | – | CS(=O)(=O)c1nc(F)c(N2CC[C@H]([C@H](CC#N)n3cc(-c4ncnc5[nH]ccc45)cn3)C2)cc1F [Example 134, (3S)-3-{(3S)-1-[2,5-difluoro-6-(methylsulfonyl)pyridin-3-yl]pyrrolidin-3-yl}-3-[4-(7H-pyrrolo[2,3-d]pyrimidin-4-yl)-1H-pyrazol-1-yl]propanenitrile trifluoroacetate] |
| – | – | < 50 nM | 4.7 | CC(C)Nc1ccnc(N2CCC(C(CC#N)n3cc(-c4ncnc5[nH]ccc45)cn3)C2)n1 (stereo not shown) [Example 7, 3-{1-[4-(isopropylamino)pyrimidin-2-yl]pyrrolidin-3-yl}-3-[4-(7H-pyrrolo[2,3-d]pyrimidin-4-yl)-1H-pyrazol-1-yl]propanenitrile] |
| < 50 nM | 12.1 | – | – | N#Cc1csc(N2CC[C@H](C(CF)n3cc(-c4ncnc5[nH]ccc45)cn3)C2)c1C#N (stereo partly drawn) [Example 80, 2-((3S)-3-{2-fluoro-1-[4-(7H-pyrrolo[2,3-d]pyrimidin-4-yl)-1H-pyrazol-1-yl]ethyl}pyrrolidin-1-yl)thiophene-3,4-dicarbonitrile] |
| < 50 nM | 51.1 | – | – | N#CC[C@@H]([C@H]1CCN(c2scc(O)c2C#N)C1)n1cc(-c2ncnc3[nH]ccc23)cn1 [Example 76, 2-((3S)-3-{(1S)-2-cyano-1-[4-(7H-pyrrolo[2,3-d]pyrimidin-4-yl)-1H-pyrazol-1-yl]ethyl}pyrrolidin-1-yl)-4-hydroxythiophene-3-carbonitrile] |
| – | – | < 50 nM | 1.9 | N#CCC(C1CCN(c2nc3ccccc3o2)C1)n1cc(-c2ncnc3[nH]ccc23)cn1 (single isomer, unassigned) [9, Step 3a] |
| < 50 nM | 6.2 | – | – | N#CC[C@@H]([C@H]1CCN(c2ncc3sccc3c2C#N)C1)n1cc(-c2ncnc3[nH]ccc23)cn1 [Example 74, 5-((3S)-3-{(1S)-2-cyano-1-[4-(7H-pyrrolo[2,3-d]pyrimidin-4-yl)-1H-pyrazol-1-yl]ethyl}pyrrolidin-1-yl)thieno[2,3-c]pyridine-4-carbonitrile] |
| < 50 nM | 14.5 | – | – | N#CCC(C1CCN(c2ccc3c(n2)S(=O)(=O)CC3)C1)n1cc(-c2ncnc3[nH]ccc23)cn1 (single isomer, unassigned) [Example 30, 3-[1-(1,1-dioxido-2,3-dihydrothieno[2,3-b]pyridin-6-yl)pyrrolidin-3-yl]-3-[4-(7H-pyrrolo[2,3-d]pyrimidin-4-yl)-1H-pyrazol-1-yl]propanenitrile] |
| < 50 nM | 7.7 | – | – | COc1cccc2nc(N3CCC(C(CC#N)n4cc(-c5ncnc6[nH]ccc56)cn4)C3)oc12 (single isomer, unassigned) [Example 162, 3-[1-(7-methoxy-1,3-benzoxazol-2-yl)pyrrolidin-3-yl]-3-[4-(7H-pyrrolo[2,3-d]pyrimidin-4-yl)-1H-pyrazol-1-yl]propanenitrile] |
| < 50 nM | 15.4 | – | – | N#CC[C@@H]([C@H]1CCN(c2nccc(C(F)(F)F)c2C#N)C1)n1cc(-c2ncnc3[nH]ccc23)cn1 [Example 50, 2-((3S)-3-{(1S)-2-cyano-1-[4-(7H-pyrrolo[2,3-d]pyrimidin-4-yl)-1H-pyrazol-1-yl]ethyl}pyrrolidin-1-yl)-4-(trifluoromethyl)nicotinonitrile trifluoroacetate] |
| < 50 nM | >16.7 | – | – | N#CC[C@@H]([C@H]1CCN(c2ccnc(Cl)c2C#N)C1)n1cc(-c2ncnc3[nH]ccc23)cn1 [Example 123, 2-chloro-4-((3S)-3-{(1S)-2-cyano-1-[4-(7H-pyrrolo[2,3-d]pyrimidin-4-yl)-1H-pyrazol-1-yl]ethyl}pyrrolidin-1-yl)nicotinonitrile trifluoroacetate] |
